Assay results reported in patent US20250257041A1, “INDUCERS OF INTEGRATED STRESS RESPONSE TO TREAT CANCER” (The Board of Regents of The University of Texas System, priority 2022, published 2025).
Like-named read-outs stand apart in the source and are kept apart here.

Tests used:
HCT116 WT = test: Proliferation of HCT116 colorectal cell line, Cell TiterGlo; format: cell-based, human
Outline: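 Cell viability by CellTiter-Glo in parental HCT116, in a GCN2-knockout line, and in parental cells co-treated with ISRIB. IC50 from triplicate 10-point titrations; repeated values come from separate runs.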

HCT116 GCN2KO = test: Proliferation of HCT116 cells with GCN2 knocked out (CRISPR), Cell TiterGlo; format: cell-based, human; conditions: Homo sapiens, HCT-116; HCT116 cells with GCN2 knocked out using CRISPR; read-out: HCT116 IC50 (uM) HCT116 − GCN2KO
Protocol: Briefly, compounds were tested for their effect on proliferation of HCT116 colorectal cell lines using Cell TiterGlo (Promega). Each compound was tested in a 10-point dose response experiment in triplicate. Multiple values in the column titled HCT116 WT reflect separate independent experiments. The three columns titled “HCT116 WT (repeat)”, “HCT116-CGN2KO” and “HCT116 WT+ISRIB” provide data for selected compounds that were tested simultaneously under three conditions. The HCT116 WT column lists IC50 against the wild type HCT116 colorectal cancer cell line. The HCT116-CGN2KO lists IC50 data for cells in which one component of the integrated stress response, GCN2, has been knocked out using CRISPR technology.

[1] = Homo sapiens, HCT-116, wild type HCT116, 10-point dose response in triplicate, multiple values = separate independent experiments, read-out: HCT116 IC50 (uM) HCT116 WT
[2] = Homo sapiens, HCT-116, wild type HCT116, tested simultaneously with GCN2KO and +ISRIB, read-out: HCT116 IC50 (uM) HCT116 WT (repeat)
[3] = wild type HCT116, compound plus 10 nM of ISRIB, read-out: HCT116 IC50 (uM) HCT116 WT + ISRIB
[4] = wild type HCT116, 10-point dose response in triplicate, multiple values = separate independent experiments

COc1ccccc1C(=O)Nc1ccc(-c2cc(NC(=O)c3ccccc3)n(C)n2)cc1 [SW389001, N-(4-(5-Benzamido-1-methyl-1H-pyrazol-3-yl)phenyl)-2-methoxybenzamide]
IC50 (HCT116 WT; [1]): 0.31 µM | IC50 (HCT116 WT; [2]): 0.84 µM | IC50 (HCT116 WT; [3]): 7 µM | IC50 (HCT116 GCN2KO): 6.44 µM

Cn1nc(-c2ccc(NC(=O)c3ccc(C(=O)c4ccccc4)cc3)cc2)cc1NC(=O)c1ccccc1 [SW389002, N-(4-(5-Benzamido-1-methyl-1H-pyrazol-3-yl)phenyl)-4-benzoylbenzamide]
IC50 (HCT116 WT; [1]): 7.1 µM | IC50 (HCT116 WT; [2]): 26.4 µM | IC50 (HCT116 WT; [3]): 46.3 µM | IC50 (HCT116 GCN2KO): 31.9 µM

Cn1nc(-c2ccc(NC(=O)c3cccc(C(=O)c4ccccc4)c3)cc2)cc1NC(=O)c1ccccc1 [SW389004, N-(4-(5-Benzamido-1-methyl-1H-pyrazol-3-yl)phenyl)-3-benzoylbenzamide]
IC50 (HCT116 WT; [1]): 5.7 µM | IC50 (HCT116 WT; [2]): 7.47 µM | IC50 (HCT116 WT; [3]): 7.22 µM | IC50 (HCT116 GCN2KO): 7.75 µM

C#Cc1cccc(C(=O)Nc2cc(-c3ccc(NC(=O)c4ccccc4)cc3)nn2C)c1 [SW389005, N-(3-(4-Benzamidophenyl)-1-methyl-1H-pyrazol-5-yl)-3-ethynylbenzamide]
IC50 (HCT116 WT; [1]): 0.313 µM | IC50 (HCT116 WT; [2]): 0.33 µM | IC50 (HCT116 WT; [3]): 2.96 µM | IC50 (HCT116 GCN2KO): 2.97 µM

COc1ccccc1C(=O)Nc1cc(-c2ccc(NC(=O)c3ccccc3)cc2)nn1C [SW389006, N-(3-(4-Benzamidophenyl)-1-methyl-1H-pyrazol-5-yl)-2-methoxybenzamide]
IC50 (HCT116 WT; [1]): 1.23 µM | IC50 (HCT116 WT; [2]): 0.82 µM | IC50 (HCT116 WT; [3]): 2.4 µM | IC50 (HCT116 GCN2KO): 2.34 µM

C#Cc1ccc(C(=O)Nc2ccc(-c3cc(NC(=O)c4ccccc4)n(C)n3)cc2)cc1 [SW389007, N-(4-(5-Benzamido-1-methyl-1H-pyrazol-3-yl)phenyl)-4-ethynylbenzamide]
IC50 (HCT116 WT; [1]): 2 µM | IC50 (HCT116 WT; [2]): 4.8 µM | IC50 (HCT116 WT; [3]): 4.42 µM | IC50 (HCT116 GCN2KO): 5.22 µM

CN1CCN(C(=O)Nc2cc(-c3ccc(NC(=O)c4ccccc4Cl)cc3)nn2C)CC1 [SW394875, N-(3-(4-(2-Chlorobenzamido)phenyl)-1-methyl-1H-pyrazol-5-yl)-4-methylpiperazine-1-carb-oxamide]
HCT116 IC50 (uM) HCT116 WT (HCT116 WT; [4]): inactive

Cn1nc(-c2ccc(NC(=O)c3ccccc3Cl)cc2)cc1NC(=O)N1CCCC1 [SW394876, N-(3-(4-(2-Chlorobenzamido)phenyl)-1-methyl-1H-pyrazol-5-yl)pyrrolidine-1-carboxamide]
IC50 (HCT116 WT; [1]): 0.19 µM

CC(=O)N1CCN(C(=O)Nc2cc(-c3ccc(NC(=O)c4ccccc4Cl)cc3)nn2C)CC1 [SW394877, 4-Acetyl-N-(3-(4-(2-chlorobenzamido)phenyl)-1-methyl-1H-pyrazol-5-yl)piperazine-1-carb-oxamide]
HCT116 IC50 (uM) HCT116 WT (HCT116 WT; [4]): inactive

COC(=O)c1cccc(C(=O)Nc2cc(-c3ccc(NC(=O)c4ccccc4Cl)cc3)nn2C)c1 [SW394878, Methyl 3-((3-(4-(2-chlorobenzamido)phenyl)-1-methyl-1H-pyrazol-5-yl)carbamoyl)benzoate]
IC50 (HCT116 WT; [1]): 0.01 µM

Cc1ncccc1C(=O)Nc1ccc(-c2cc(N(C)C(=O)c3ccccc3)n(C)n2)cc1 [SW394880-1, 2-methyl-N-(4-(1-methyl-5-(N-methylbenzamido)-1H-pyrazol-3-yl)phenyl)nicotinamide]
IC50 (HCT116 WT; [1]): 1.04 µM

Cn1nc(-c2ccc(NC(=O)N3CCCCC3)cc2)cc1NC(=O)c1ccccc1 [SW394891-1, N-(4-(5-benzamido-1-methyl-1H-pyrazol-3-yl)phenyl)piperidine-1-carboxamide]
IC50 (HCT116 WT; wild type HCT116, 10-point dose response in triplicate, multiple values = separate independent experiments, read-out: HCT116 IC50 (uM) HCT116 WT): 0.24 µM

Cn1nc(-c2ccc(NC(=O)N3CCOCC3)cc2)cc1NC(=O)c1ccccc1 [SW394892-1, N-(4-(5-benzamido-1-methyl-1H-pyrazol-3-yl)phenyl)morpholine-4-carboxamide]
IC50 (HCT116 WT; [1]): > 5 µM

Cn1nc(-c2ccc(NC(=O)N3CCCC3)cc2)cc1NC(=O)c1ccccc1 [SW394893-1, N-(4-(5-benzamido-1-methyl-1H-pyrazol-3-yl)phenyl)pyrrolidine-1-carboxamide]
IC50 (HCT116 WT; [1]): > 5 µM

CC(=O)Nc1cccc(C(=O)Nc2cc(-c3ccc(NC(=O)c4ccccc4Cl)cc3)nn2C)c1 [SW394894-1, N-(4-(5-(3-acetamidobenzamido)-1-methyl-1H-pyrazol-3-yl)phenyl)-2-chlorobenzamide]
IC50 (HCT116 WT; [1]): 0.01 µM

Cn1nc(-c2ccc(NC(=O)c3ccccc3Cl)cc2)cc1NC(=O)c1cccc(NS(C)(=O)=O)c1 [SW394895-1, 2-chloro-N-(4-(1-methyl-5-(3-(methylsulfonamido)benzamido)-1H-pyrazol-3-yl)phenyl)benzamide]
IC50 (HCT116 WT; [1]): 0.03 µM

Cn1nc(-c2ccc(NC(=O)c3ccccc3Cl)cc2)cc1NC(=O)c1cccc(CNC(=O)OC(C)(C)C)c1 [SW394896-1, tert-butyl (3-((3-(4-(2-chlorobenzamido)phenyl)-1-methyl-1H-pyrazol-5-yl)carbamoyl)benzyl)carbamate]
IC50 (HCT116 WT; [1]): 0.05 µM

Cn1nc(-c2ccc(NC(=O)c3ccccc3Cl)cc2)cc1NC(=O)c1cccc(NC(=O)OC(C)(C)C)c1 [SW394897-1, tert-butyl (3-((3-(4-(2-chlorobenzamido)phenyl)-1-methyl-1H-pyrazol-5-yl)carbamoyl)phenyl)carbamate]
IC50 (HCT116 WT; [1]): 0.02 µM

Cn1nc(-c2ccc(NC(=O)c3ccccc3Cl)cc2)cc1NC(=O)c1cccc(CN)c1 [SW394966, N-(4-(5-(3-(aminomethyl)benzamido)-1-methyl-1H-pyrazol-3-yl)phenyl)-2-chlorobenzamide]
IC50 (HCT116 WT; [1]): 0.055 µM

Cn1nc(-c2ccc(NC(=O)c3cc(NC(=O)OC(C)(C)C)ccc3Cl)cc2)cc1NC(=O)c1ccccc1 [SW394967, tert-butyl (3-((4-(5-benzamido-1-methyl-1H-pyrazol-3-yl)phenyl)carbamoyl)-4-chlorophenyl)carbamate]
IC50 (HCT116 WT; [1]): 0.541 µM

Cn1nc(-c2ccc(NC(=O)c3ccccc3Cl)cc2)cc1NC(=O)c1cccc(OCCNC(=O)OC(C)(C)C)c1 [SW394968, tert-butyl (2-(3-((3-(4-(2-chlorobenzamido)phenyl)-1-methyl-1H-pyrazol-5-yl)carbamoyl)phenoxy)ethyl)carbamate]
IC50 (HCT116 WT; [1]): 0.062 µM

Cn1nc(-c2ccc(NC(=O)c3ccccc3Cl)cc2)cc1NC(=O)C1CC2CCC1CC2 (stereo not shown) [SW394969, N-(3-(4-(2-chlorobenzamido)phenyl)-1-methyl-1H-pyrazol-5-yl)bicyclo[2.2.2]octane-2-carboxamide]
IC50 (HCT116 WT; [1]): 0.03 µM

Cn1nc(-c2ccc(NC(=O)c3ccccc3Cl)cc2)cc1NC(=O)c1cccc(OCCN)c1 [SW394970, N-(4-(5-(3-(2-aminoethoxy)benzamido)-1-methyl-1H-pyrazol-3-yl)phenyl)-2-chlorobenzamide]
IC50 (HCT116 WT; [1]): 0.05 µM

Cn1nc(-c2ccc(NC(=O)c3ccccc3Cl)cc2)cc1NC(=O)c1cccc(OCCNc2ccc([N+](=O)[O-])c3nonc23)c1 [SW394971, 2-Chloro-N-(4-(1-methyl-5-(3-(2-((7-nitrobenzo[c][1,2,5]oxadiazol-4-yl)amino)ethoxy)benz-amido)-1H-pyrazol-3-yl)phenyl)benzamide]
IC50 (HCT116 WT; [1]): 0.02 µM

Cn1nc(-c2ccc(NC(=O)c3ccccc3Cl)cc2)cc1NC(=O)c1cccc(OCCNC(=S)Nc2ccc(-c3c4ccc(=O)cc-4oc4cc(O)ccc34)c(C(=O)O)c2)c1 [SW394972, 5-(3-(2-(3-((3-(4-(2-chlorobenzamido)phenyl)-1-methyl-1H-pyrazol-5-yl)carbamoyl)phenoxy)ethyl)thioureido)-2-(6-hydroxy-3-oxo-3H-xanthen-9-yl)benzoic acid]
IC50 (HCT116 WT; [1]): 1.3 µM
